The supplement of paper PMC10307832

Columns and labels:
Assay in all cases: relative viability (nuclei count vs DMSO), 5 days (fraction); higher = more cells survive
HARA = test system: HARA
Outline: (§1)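 Lung cancer cell lines were pin-tool dosed in 1536-well plates on the day after seeding, with either a lone drug or a fixed anchor-drug dose plus five library-drug doses (not always all listed) in √10 steps. Nuclei were counted on 4× images after 5 days. Relative viability is the ratio of treated-well to vehicle-well nuclei counts, with each value a median of duplicate plates.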

PC-14 = test system: PC-14
Outline: as §1

NCI-H1993 = test system: NCI-H1993
Outline: as §1

NCI-H1915 = test system: NCI-H1915
Outline: as §1

NCI-H2347 = test system: NCI-H2347
Outline: as §1

UMC-11 = test system: UMC-11
Outline: as §1

LU99A = test system: LU99A
Outline: as §1

NCI-H358 = test system: NCI-H358
Outline: as §1

NCI-H650 = test system: NCI-H650
Outline: as §1

NCI-H2126 = test system: NCI-H2126
Outline: as §1

NCI-H1355 = test system: NCI-H1355
Outline: as §1

NCI-H838 = test system: NCI-H838
Outline: as §1

Question: Which results are given for O=c1cc(N2CCOCC2)oc2c(-c3cccc4c3sc3ccccc34)cccc12 + COc1cccc2cc(-c3nc([C@H]4CC[C@H](C(=O)O)CC4)n4ncnc(N)c34)[nH]c12 [OSI-027] (partner 0.5 µM)?
Answer: relative viability (HARA; first compound 0.01 µM): 0.549; relative viability (HARA; first compound 0.03162 µM): 0.638; relative viability (HARA; first compound 0.1 µM): 0.554; relative viability (HARA; first compound 0.3162 µM): 0.585; relative viability (HARA; first compound 1 µM): 0.564; relative viability (PC-14; first compound 0.01 µM): 0.954; relative viability (PC-14; first compound 0.03162 µM): 0.858; relative viability (PC-14; first compound 0.1 µM): 0.74; relative viability (PC-14; first compound 0.3162 µM): 1.04; relative viability (PC-14; first compound 1 µM): 0.795; relative viability (NCI-H1993; first compound 0.01 µM): 0.501; relative viability (NCI-H1993; first compound 0.03162 µM): 0.521; relative viability (NCI-H1993; first compound 0.1 µM): 0.566; relative viability (NCI-H1993; first compound 0.3162 µM): 0.532; relative viability (NCI-H1993; first compound 1 µM): 0.65; relative viability (NCI-H1915; first compound 0.01 µM): 0.672; relative viability (NCI-H1915; first compound 0.03162 µM): 0.796; relative viability (NCI-H1915; first compound 0.1 µM): 0.663; relative viability (NCI-H1915; first compound 0.3162 µM): 0.647; relative viability (NCI-H1915; first compound 1 µM): 0.65; relative viability (NCI-H2347; first compound 0.01 µM): 0.503; relative viability (NCI-H2347; first compound 0.03162 µM): 0.392; relative viability (NCI-H2347; first compound 0.1 µM): 0.522; relative viability (NCI-H2347; first compound 0.3162 µM): 0.42; relative viability (NCI-H2347; first compound 1 µM): 0.461; relative viability (UMC-11; first compound 0.01 µM): 0.472; relative viability (UMC-11; first compound 0.03162 µM): 0.507; relative viability (UMC-11; first compound 0.1 µM): 0.496; relative viability (UMC-11; first compound 0.3162 µM): 0.526; relative viability (UMC-11; first compound 1 µM): 0.45; relative viability (LU99A; first compound 0.01 µM): 0.277; relative viability (LU99A; first compound 0.03162 µM): 0.337; relative viability (LU99A; first compound 0.1 µM): 0.323; relative viability (LU99A; first compound 0.3162 µM): 0.311; relative viability (LU99A; first compound 1 µM): 0.347; relative viability (NCI-H358; first compound 0.01 µM): 0.83; relative viability (NCI-H358; first compound 0.03162 µM): 0.878; relative viability (NCI-H358; first compound 0.1 µM): 0.881; relative viability (NCI-H358; first compound 0.3162 µM): 0.844; relative viability (NCI-H358; first compound 1 µM): 0.781; relative viability (NCI-H650; first compound 0.03162 µM): 0.591; relative viability (NCI-H650; first compound 0.1 µM): 0.391; relative viability (NCI-H650; first compound 0.3162 µM): 0.598; relative viability (NCI-H650; first compound 1 µM): 0.493; relative viability (NCI-H2126; first compound 0.01 µM): 0.709; relative viability (NCI-H2126; first compound 0.03162 µM): 0.707; relative viability (NCI-H2126; first compound 0.1 µM): 0.706; relative viability (NCI-H2126; first compound 0.3162 µM): 0.772; relative viability (NCI-H2126; first compound 1 µM): 0.702; relative viability (NCI-H1355; first compound 0.01 µM): 0.474; relative viability (NCI-H1355; first compound 0.03162 µM): 0.469; relative viability (NCI-H1355; first compound 0.1 µM): 0.265; relative viability (NCI-H1355; first compound 0.3162 µM): 0.452; relative viability (NCI-H1355; first compound 1 µM): 0.394; relative viability (NCI-H838; first compound 0.01 µM): 0.401; relative viability (NCI-H838; first compound 0.03162 µM): 0.397
